# Experimental data reported in patent US11278561B2, “Combination treatment for hematological cancers” (Geron Corporation, priority 2016, dated 2022).
# Tests used:
# MOLM-13 cells = experiment: Annexin V / Propidium Iodide flow cytometry apoptosis assay in MOLM-13; assay type: cell-based; design: key to Excess over HSA / Excess over BLISS: excess = combination minus HSA/Bliss expected, in % apoptotic cells; settings: for Excess over BLISS / Excess over HSA: imetelstat sodium μM: r7 50, r8 25, r9 10, r10 0
# Experimental: AML tumor cells KG-1 (ATCC #CCL-246) and MOLM-13 (DSMZ #ACC554) were plated at a density of ˜20,000 cells per well on 96-well polystyrene U-bottom tissue culture plates (Corning catalog #353777) in RPMI-1640 (ThermoFisher catalog #11875-085) supplemented with 10% fetal bovine serum (ThermoFisher catalog #16140-089) and 1% penicillin/streptomycin antibiotic cocktail (ThermoFisher catalog 15140-122) and grown in a 37° C. incubator under humidified 5% CO2 atmosphere.
# At 48 and 96 hours, cells were measured for healthy, early apoptotic and apoptotic populations with an Annexin V (interior cell membrane stain) plus Propidium Iodide (PI, DNA binding dye) flow cytometry assay kit (BioLegend catalog 640914). Annexin V detects the externalization of phosphatidylserine in apoptotic cells using recombinant annexin V conjugated to green-fluorescent FITC dye and dead cells using Propidium iodide (PI). Propidium iodide stains necrotic cells with red fluorescence. After treatment with both probes, early apoptotic cells show green fluorescence, apoptotic (dead) cells show red and green fluorescence, and live cells show little or no fluorescence. […] Cells were stained for 30 minutes at 4° C. in the dark, followed by 3× washes with PBS and suspension in FACs Stain Buffer (BD catalog 554657) prior to interrogation on a BD FACs Canto flow cytometer for forward scatter, side scatter, FITC, and PE channels. […] The percentage of apoptotic cells (double labeled) was used to calculate combination effects using both the Highest Single Agent (HSA) and Bliss additivity models (J Tang et al. Frontiers in Pharmacology. 2015; 6 (181)).
# Using the HSA model, the cytotoxic effect of the combined condition (“C”) was compared to the effect generated by each of the single agent controls (“A” or “B”) for the respective dose in the combination: Excess over HSA=C−A (if A>B) or C−B (if A<B)
# The Bliss model performs a similar comparison, but instead of the highest effect of single agent, the Bliss model subtracts from the combination a value equal to the sum of each single agent minus their product: Excess over Bliss=C−[(A+B)−(A*B)]
# Treated cells were analyzed by Flow cytometry for Annexin V and Propidium Iodide staining as described previously. Events gated in the apoptotic population (Annexin V+/Propidium Iodide+) were used to determine synergy scores for the combination matrix. Combination data analysis was generated by the Horizon Chalice™ Analyzer Software (Horizon Discovery Group, Cambridge, UK). […] Mismatch and non-complimentary controls were not utilized in this experiment.
# Combination conditions undergo isobolar analysis to generate a combination index and graphically represent the behavior of a combination with synergistic pairs falling below the isobologram and antagonistic falling above it (additive combinations would be expected to fall on the line). The Horizon Chalice™ Analyzer Software additionally provides a synergy score, with values greater than 1 indicating synergy.
# hTERT [1] = experiment: hTERT transcription levels by RT-qPCR in KG-1; assay type: cell-based, human; settings: 20 nM ABT-199, at either time point (48 or 96 hours)
# Experimental: (§1) Samples from cell experiments (and single agent controls) were collected for molecular analyses to assess combination effects contributing to potential mechanisms of action. […] Nucleic acids were purified by first lysing cells with 350 μL of RLT Buffer (Qiagen catalog #1030963) supplemented with 2-mercaptoethanol (Sigma catalog #63689-100ML-F). RNA was purified with the AllPrep RNA/DNA Mini Kit (Qiagen catalog #80204) and reverse transcribed to cDNA using a High Capacity cDNA kit (ThermoFisher catalog #4368814) and pre-amplified prior to analysis with TaqMan PreAmp Master Mix (ThermoFisher catalog #4384557B). Products were analyzed using an in-house developed Taq-Man RT-qPCR assay to measure hTERT transcription levels (TaqMan Universal PCR Master Mix—ThermoFisher catalog #4304437; primer and probe sequences below) using a ViiA7 Real-Time PCR system from ThermoFisher: […]
# hTERT [2] = experiment: hTERT transcription levels by RT-qPCR in MOLM-13; assay type: cell-based, human; settings: MOLM-13, 96 hours; 50 μM imetelstat sodium and/or 20 nM ABT-199
# Experimental: as §1
# telomerase [3] = experiment: telomerase activity by qPCR TRAP in KG-1 lysates; assay type: cell-based, human; settings: 50 μM imetelstat sodium or 20 nM ABT-199
# Experimental: (§2) Samples from the previous section for protein analysis were collected as cell pellets by centrifugation at 5 minutes for 1500K for lyses and protein extraction. Protein lysates were analyzed by utilizing a modified method combined from two primary sources (Hou, et al. (2001) 43(3) 519-524 and Nature Protocols (2006) 1 (3) 1583-1590). Lysates were generated by adding 80 μL of a 10 mM Tris-EDTA, 1% NP-40, 10% Glycerol, 150 mM NaCl, 1 mM MgCl2, 250 μM Sodium Deoxycholate, 100 μM AEBSF, 5 mM 2-mercaptoethanol buffer and incubating on ice for 30 minutes. Lysates were centrifuged for 15 minutes at max speed and at 4° C. to pellet cellular debris. Protein yield from clarified lysates were quantified using a BCA assay (ThermoFisher catalog 23252) and subjected to a qPCR TRAP-based assay to determine relative telomerase activity (Power SYBR Green PCR Master Mix—ThermoFisher #4367659) using a ViiA7 Real-Time PCR system from ThermoFisher. In this assay, protein lysates are exposed to synthetic oligonucleotides mimicking telomere sequences in the presence of excess dNTPs and SYBR green dye. The greater the activity of telomerase, the greater extension of the synthetic primers, and therefore greater staining of nucleic acid and signal generated by the SYBR dye. This signal is compared to a standard curve of control protein lysate to determine the relative telomerase activity between samples.
# telomerase [4] = experiment: telomerase activity by qPCR TRAP in MOLM-13 lysates; assay type: cell-based, human; settings: 50 μM imetelstat sodium or 20 nM ABT-199
# Experimental: as §2
# [5] = MOLM-13, 48 hours, ABT-199 1 nM
# [6] = MOLM-13, 48 hours, ABT-199 5 nM
# [7] = MOLM-13, 48 hours, ABT-199 20 nM
# [8] = MOLM-13, 48 hours, ABT-199 100 nM
# [9] = MOLM-13, 48 hours, ABT-199 500 nM
# [10] = MOLM-13, 96 hours, ABT-199 1 nM
# [11] = MOLM-13, 96 hours, ABT-199 5 nM
# [12] = MOLM-13, 96 hours, ABT-199 20 nM
# [13] = MOLM-13, 96 hours, ABT-199 100 nM
# [14] = MOLM-13, 96 hours, ABT-199 500 nM
smiles,measurement,setting,value
"CC1(C)CCC(CN2CCN(c3ccc(C(=O)NS(=O)(=O)c4ccc(NCC5CCOCC5)c([N+](=O)[O-])c4)c(Oc4cnc5[nH]ccc5c4)c3)CC2)=C(c2ccc(Cl)cc2)C1 [ABT-199, 4-[4-[[2-(4-chlorophenyl)-4,4-dimethylcyclohexen-1-yl]methyl]piperazin-1-yl]-N-[3-nitro-4-(oxan-4-ylmethylamino)phenyl]sulfonyl-2-(1H-pyrrolo [2,3-b]pyridin-5-yloxy)benzamide]",Excess over BLISS,MOLM-13 cells; [5],0
same,Excess over HSA,MOLM-13 cells; [5],0
same,Excess over BLISS,MOLM-13 cells; [6],0
same,Excess over HSA,MOLM-13 cells; [6],0
same,Excess over BLISS,MOLM-13 cells; [7],0
same,Excess over HSA,MOLM-13 cells; [7],0
same,% apoptotic cells (double label),MOLM-13 cells; [8],~19%
same,Excess over BLISS,MOLM-13 cells; [8],0
same,Excess over HSA,MOLM-13 cells; [8],0
same,% apoptotic cells (double label),MOLM-13 cells; [9],~30%
same,Excess over BLISS,MOLM-13 cells; [9],0
same,Excess over HSA,MOLM-13 cells; [9],0
same,Excess over BLISS,MOLM-13 cells; [10],0
same,Excess over HSA,MOLM-13 cells; [10],0
same,Excess over BLISS,MOLM-13 cells; [11],0
same,Excess over HSA,MOLM-13 cells; [11],0
same,Excess over BLISS,MOLM-13 cells; [12],0
same,Excess over HSA,MOLM-13 cells; [12],0
same,Excess over BLISS,MOLM-13 cells; [13],0
same,Excess over HSA,MOLM-13 cells; [13],0
same,Excess over BLISS,MOLM-13 cells; [14],0
same,Excess over HSA,MOLM-13 cells; [14],0
same,cell death,"MOLM-13 cells; MOLM-13, 96 hours, ABT-199 at 5, 20, 100 and 500 nM",> 30%
same,apoptotic activity,"MOLM-13 cells; MOLM-13, after 48 hours, concentrations not given",30%
same,"hTERT RNA expression level, percentage of untreated controls",hTERT [1],90-95%
same,"hTERT RNA expression level, percentage of untreated controls",hTERT [2],~69%
same,telomerase activity as compared to control,"telomerase [3]; KG-1, 48 hours",no effect
same,telomerase activity as compared to control,"telomerase [3]; KG-1, 96 hours",~80%
same,telomerase activity as compared to control,"telomerase [4]; MOLM-13, 48 hours",no effect
same,telomerase activity as compared to control,"telomerase [4]; MOLM-13, 96 hours",~70%
